Assay [1] concerns the target T1, Growth hormone secretagogue receptor type 1 (Homo sapiens, UniProt Q92847). Nature of the assay: Displacement of [35S]MK-0677 from human growth hormone secretagogue receptor.
Assay [2] concerns the target T1, Growth hormone secretagogue receptor type 1. Nature of the assay: Displacement of [125I]ghrelin from human growth hormone secretagogue receptor expressed in CHO-K1 cells at >2 uM. In kind it is cell-based. In general terms: Loss of bound radioactivity is the signal in a displacement assay; it reports binding, not function.
For assay [3] the target is unchanged. Nature of the assay: Displacement of [125I]ghrelin from human growth hormone secretagogue receptor expressed in CHO-K1 cells. The class given is cell-based.

What is called IC50 is the concentration at which inhibition is half-maximal. Read a low IC50 as greater potency in that assay.

Where a SMILES comes first, the peptide text is derived from it. [ ]: non-standard residue; d: D form. The star is where a group is joined. Heptanoyl = CCCCCCC(=O)*; Dap = NC[C@H](N)C(=O)O; X1 = O=C(CCCCCF)*

T1 sequence (Q92847 whole entry): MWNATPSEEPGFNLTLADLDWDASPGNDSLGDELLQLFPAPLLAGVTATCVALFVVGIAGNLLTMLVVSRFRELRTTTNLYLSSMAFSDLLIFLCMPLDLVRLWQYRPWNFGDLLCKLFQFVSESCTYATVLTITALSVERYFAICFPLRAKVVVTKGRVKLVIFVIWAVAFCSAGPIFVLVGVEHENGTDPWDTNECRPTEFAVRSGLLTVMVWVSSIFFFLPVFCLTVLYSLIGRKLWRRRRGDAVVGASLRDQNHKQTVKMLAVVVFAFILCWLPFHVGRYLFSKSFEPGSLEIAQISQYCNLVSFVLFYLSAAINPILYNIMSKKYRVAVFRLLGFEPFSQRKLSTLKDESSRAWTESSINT

In turn, `CCCCCCC(=O)OC[C@H](NC(=O)[C@H](CO)NC(=O)CN)C(=O)N[C@@H](Cc1ccccc1)C(=O)N[C@@H](CC(C)C)C(=O)N[C@@H](CO)C(=O)N1CCC[C@H]1C(=O)N[C@@H](CCC(=O)O)C(=O)N[C@@H](Cc1cnc[nH]1)C(=O)N[C@@H](CCC(N)=O)C(=O)N[C@@H](CCCN=C(N)N)C(=O)N[C@H](C(=O)N[C@@H](CCC(N)=O)C(=O)N[C@@H](CCC(N)=O)C(=O)O)C(C)C` returned an IC50 in assay [1] of 9.6 µM.
The same measure, in the same setting: then `CCCCCCC(=O)OC[C@H](NC(=O)[C@H](CO)NC(=O)CN)C(=O)N[C@@H](Cc1ccccc1)C(N)=O` (H-GSS(Heptanoyl)F-NH2), with 889 µM; and `CCCCCCC(=O)OC[C@H](NC(=O)[C@H](CO)NC(=O)CN)C(=O)N[C@@H](Cc1ccccc1)C(=O)N[C@@H](CC(C)C)C(N)=O` (H-GSS(Heptanoyl)FL-NH2), with 55 µM.
Take `CC(C)C[C@H](NC(=O)[C@H](Cc1ccccc1)NC(=O)[C@H](CNC(=O)CCCCCF)NC(=O)[C@H](CO)NC(=O)CN)C(N)=O` (H-GS[Dap](X1)FL-NH2): in assay [2], the Activity is 20%. Further, the IC50 in assay [3] is above 2 µM.
